Reference: patent US20100129310A1, “STABILIZED DESLORATADINE COMPOSITION” (priority 2005, published 2010)

Assay: Compatibility of desloratadine with excipient materials, N-formyl desloratadine by HPLC
Assay type: physicochemical
Procedure: Compatibility of desloratadine with various excipient materials was determined by mixing the drug and an excipient, then subjecting the mixture to direct exposure for 14 days at 40° C. and 75% relative humidity. The analytical results for the presence of N-formyl desloratadine in the samples (as determined by HPLC) were as tabulated below, where ratios are expressed on a weight basis. Desloratadine and polacrilin resin (AMBERLITE IRP64) were dispersed in water and stirred for 2 hours, isolated by filtration, and then dried at 60° C. until the loss on drying was not more than 10% w/w when tested using an infrared moisture balance at 105° C. Where citric acid was used, the quantity of citric acid was selected to adjust the pH of the dispersion to about 6.5. Where lactose was used, the quantity of lactose is 6 times the weight of other materials, and the lactose is dry mixed with the desloratadine or dried desloratadine-resin mixture.

Clc1ccc2c(c1)CCc1cccnc1C2=C1CCNCC1 [Desloratadine, 8-chloro-6,11-dihydro-11-(4-piperidinylidene)-5H-benzo[5,6]-cyclohepta[1,2-b]pyridine]
% N-Formyl DCL Initial (Initial): Nil
% N-Formyl DCL After exposure (direct exposure for 14 days at 40° C. and 75% relative humidity): Nil
